Experimental data as given in patent US5922713A, “Inhibition of nitric oxide synthase” (priority 1997, dated 1999).

Key:
Sprague-Dawley rats = assay: in vivo toxicity test, intraperitoneal injection in Sprague-Dawley rats; conditions: 10 mg, rats 240-250 g body weight
Experimental: (§1) The therapeutic use of C1' aminobiopterin is facilitated by its low toxicity, both in vitro and in vivo. A useful in vitro toxicity screen which is predictive of in vivo response was to use cultured 3T3 murine fibroblasts. […] In an in vivo test, intraperitoneal injection of a solution containing 10 mg of tetrahydroaminobiopterin (I) dihydrochloride caused no toxicity in Sprague-Dawley rats (240-250 g body weight).

[1] = target: T1, recombinant rat neuronal NO synthase (Rattus norvegicus, UniProt P29476); assay: NO synthase activity, formation of tritiated citrulline from tritiated L-arginine (rat neuronal); type: biochemical
T1 construct: made in house
Experimental: (§2) It has been discovered that C1' tetrahydroaminobiopterin inhibits the stimulation of NOSs by 10 μM tetrahydrobiopterin with an IC50 (50% inhibitory concentration) of 1 μM (rat neuronal NOS), or 7 μM (murine inducible NOS) as assayed by formation of tritiated citrulline from tritiated L-arginine according to Mayer, et al., "Molecular mechanisms of inhibition of porcine brain nitric oxide synthase by the antinociceptive drug 7-nitro-indazole," Neuropharmacology, 33:1253-1259 (1994), the teachings of which are incorporated herein by reference. In tissue culture tetrahydroaminobiopterin (I) reduced the formation of nitrites (a breakdown product of nitric oxide) when formation was triggered in murine NIH-3T3 by treatment with a combination of murine interferon-y (250 U/ml) and lipopolysaccharide (1 μg/ml) ("LPS"). […] In one embodiment, rat liver phenylalanine-4-hydroxylase was inhibited by 1 mM tetrahydroaminobiopterin only 30% irrespective of the tetrahydroaminobiopterin concentrations used (3-300 μM). IC50 of tetrahydroaminobiopterin (I) for sheep liver dihydropterin reductase is 20 μM, again irrespective of the tetrahydroaminobiopterin concentrations used.
NO synthase activity: NO synthase activity was measured as the formation of [2,3,4,5-^3 H]citrulline from L-[2,3,4,5-^3 H]arginine. This was conducted by the method of Mayer, et al., "Molecular mechanisms of inhibition of porcine brain nitric oxide synthase by the antinociceptive drug 7-nitro-indazole," Neuropharmacology, 33:1253-1259 (1994). Incubation mixtures (0.1 ml) contain 50 mM triethanolamine/HCl buffer, pH 7.0, 0.1 μg purified recombinant rat neuronal NO synthase (tetrahydrobiopterin-free, prepared according to the teachings of List et al., Biochem. J., 315:57-63 (1996)), the teachings of which are incorporated herein by reference., 0.1 mM L-2,3,4,5-^3 H]arginine (approx 6000 counts per minute). 0.5 mM CaCl2, 10 μg/ml calmodulin, 0.2 mM NADPH ([…], reduced form), 10 μM 6R-tetrahydrobiopterin, 0-1000 μM NO synthase inhibitor, 5 μM flavin adenine dinucleotide("FAD"), 5 μM flavin mononucleotide ("FMN"), and 0.2 mM 3-[3-chloramidopropyl)dimethylamonio]-1-propanesulfonate ("CHAPS"). After incubation for 10 minutes at 37° C., the reaction is stopped by the addition of 0.9 ml 20 mM sodium acetate buffer, pH 5.5, containing 1 mM L-citrulline. The mixture is then applied to ion exchange resin columns (Dowex AG50W-XB, Dow Chemical, Midland, Mich.), the eluate and 1 ml water for washing the column are collected. Next, 7 ml scintillation cocktail are added and the radioactivity is determined. The radioactivity detected by scintillation corresponds to the amount of L-citrulline formed in the NO synthase reaction.

murine 3T3 fibroblasts = assay: nitrite formation by interferon-γ/LPS stimulated murine 3T3 fibroblasts (Example 2); type: cell-based; conditions: for inhibition at 7.8 µM: conc. 7.8 μM; for inhibition at 7.8 µM / inhibition at 15.6 µM / inhibition at 31.2 µM / inhibition at 62.5 µM: 48 hours; for inhibition at 15.6 µM: conc. 15.6 μM; for inhibition at 31.2 µM: conc. 31.2 μM; for inhibition at 62.5 µM: conc. 62.5 μM
Experimental: Nitric oxide synthase is induced in 3T3 fibroblasts from mice (1×10^5 /ml) by a mixture of LPS (055:b5 from E. coli.), 1 μg/ml) and murine interferon-γ (50 U/ml). The cells were cultured with and without inhibitors for 48 hours, and nitrite was determined in culture supernatants as a measure of NO formation by the cells. The ratio of nitrite to nitrate, the second product of decomposition of NO, remains constant by treatment with the inhibitor. Nitrite determination was carried out using the Greiss Ilosvay's reagent, which was mixed with an equal volume of culture supernatant and the amount of dye formed was measured by UV absorption at 550 nm in a microplate reader.

[2] = target: rat neuronal nitric oxide synthase (Rattus norvegicus, UniProt P29476); assay: binding of tritiated tetrahydroaminobiopterin (Klatt et al.), affinity for rat neuronal nitric oxide synthase; conditions: vs naturally occurring cofactor tetrahydrobiopterin
Chain of rat neuronal nitric oxide synthase (P29476 whole entry): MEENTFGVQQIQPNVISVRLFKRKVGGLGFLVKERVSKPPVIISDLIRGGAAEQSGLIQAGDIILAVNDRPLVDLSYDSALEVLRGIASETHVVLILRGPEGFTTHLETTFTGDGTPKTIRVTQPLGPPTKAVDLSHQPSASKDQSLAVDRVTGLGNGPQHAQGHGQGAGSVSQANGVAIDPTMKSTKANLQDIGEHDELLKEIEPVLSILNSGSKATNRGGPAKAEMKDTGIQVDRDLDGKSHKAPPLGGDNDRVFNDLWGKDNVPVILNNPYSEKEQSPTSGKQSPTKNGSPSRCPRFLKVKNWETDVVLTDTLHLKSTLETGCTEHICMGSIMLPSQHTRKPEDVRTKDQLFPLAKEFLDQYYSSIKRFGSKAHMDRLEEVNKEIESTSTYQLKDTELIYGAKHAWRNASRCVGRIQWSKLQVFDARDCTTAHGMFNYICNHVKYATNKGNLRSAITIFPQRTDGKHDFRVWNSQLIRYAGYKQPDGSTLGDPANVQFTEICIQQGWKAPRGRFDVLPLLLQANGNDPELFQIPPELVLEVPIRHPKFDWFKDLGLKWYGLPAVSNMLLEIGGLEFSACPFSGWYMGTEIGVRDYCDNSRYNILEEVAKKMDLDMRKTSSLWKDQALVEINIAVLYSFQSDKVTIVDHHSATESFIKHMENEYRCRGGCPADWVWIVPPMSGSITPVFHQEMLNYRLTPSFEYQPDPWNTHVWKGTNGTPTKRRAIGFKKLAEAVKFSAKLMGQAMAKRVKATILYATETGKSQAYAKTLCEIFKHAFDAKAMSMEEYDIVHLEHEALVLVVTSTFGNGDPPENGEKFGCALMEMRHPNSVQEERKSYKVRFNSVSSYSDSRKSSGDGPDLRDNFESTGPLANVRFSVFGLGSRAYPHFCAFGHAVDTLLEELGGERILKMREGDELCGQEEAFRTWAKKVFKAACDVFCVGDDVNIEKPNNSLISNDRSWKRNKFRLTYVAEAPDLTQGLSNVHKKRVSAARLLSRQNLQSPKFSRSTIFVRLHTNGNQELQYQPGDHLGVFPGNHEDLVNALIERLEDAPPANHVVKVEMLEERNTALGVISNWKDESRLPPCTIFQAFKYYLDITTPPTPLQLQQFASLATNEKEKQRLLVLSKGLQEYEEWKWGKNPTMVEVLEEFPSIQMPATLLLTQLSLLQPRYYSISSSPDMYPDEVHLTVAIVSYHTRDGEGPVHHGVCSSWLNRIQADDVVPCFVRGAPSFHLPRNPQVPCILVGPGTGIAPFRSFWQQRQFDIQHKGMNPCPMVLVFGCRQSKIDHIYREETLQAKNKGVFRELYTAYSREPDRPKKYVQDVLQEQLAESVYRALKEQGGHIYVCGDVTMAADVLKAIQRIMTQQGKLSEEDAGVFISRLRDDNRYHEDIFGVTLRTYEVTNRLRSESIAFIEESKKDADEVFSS
Experimental: These determinations are assayed with binding of tritiated tetrahydroaminobiopterin according to the method of Klatt et al., "The pteridine binding site of brain nitric oxide synthase," J.Biol.Chem., 269:13861-13866 (1994), the teachings of which are incorporated herein by reference.

[3] = target: inducible murine nitric oxide synthase (Mus musculus, UniProt P29477); assay: binding of tritiated tetrahydroaminobiopterin (Klatt et al.), affinity for inducible murine nitric oxide synthase; conditions: vs naturally occurring cofactor tetrahydrobiopterin
murine inducible NOS = murine inducible NOS (Mus musculus, UniProt P29477); assay: NO synthase activity, formation of tritiated citrulline from tritiated L-arginine (murine inducible); type: biochemical; conditions: 10 μM tetrahydrobiopterin, read-out: IC50 (50% inhibitory concentration), inhibition of stimulation of NOSs by tetrahydrobiopterin
Experimental: as §2

murine NIH-3T3 = assay: formation of nitrites triggered in murine NIH-3T3 by interferon-γ (250 U/ml) and LPS; type: cell-based
Experimental: as §2

[4] = system: cultivated porcine endothelial cells; assay: NOS inhibition in cultivated porcine endothelial cells; type: cell-based; conditions: Sus scrofa, Endothelial cell, read-out: IC50, inhibitory effect on NOS
[5] = system: rat liver phenylalanine-4-hydroxylase; assay: inhibition of rat liver phenylalanine-4-hydroxylase; type: biochemical; conditions: 1 mM; irrespective of the tetrahydroaminobiopterin concentrations used (3-300 μM)
Experimental: as §2

3T3 murine fibroblasts = assay: in vitro toxicity screen in cultured 3T3 murine fibroblasts; type: cell-based; conditions: 250 μM, up to 48 hours
Experimental: as §1

NOSs = assay: specificity for NOSs; type: biochemical
Experimental: as §2

[6] = conc. 0.01 μM, 10 μM 6R-tetrahydrobiopterin
[7] = conc. 0.1 μM, 10 μM 6R-tetrahydrobiopterin
[8] = conc. 1.0 μM, 10 μM 6R-tetrahydrobiopterin
[9] = conc. 3.0 μM, 10 μM 6R-tetrahydrobiopterin
[10] = conc. 10 μM, 10 μM 6R-tetrahydrobiopterin
[11] = conc. 30 μM, 10 μM 6R-tetrahydrobiopterin
[12] = conc. 100 μM, 10 μM 6R-tetrahydrobiopterin
[13] = conc. 1000 μM, 10 μM 6R-tetrahydrobiopterin

Structure (SMILES) | NO synthase activity [1, 6] [nmol/mg/min] | NO synthase activity [1, 7] [nmol/mg/min] | NO synthase activity [1, 8] [nmol/mg/min] | NO synthase activity [1, 9] [nmol/mg/min] | inhibition at 3 µM [1, 9] [%] | NO synthase activity [1, 10] [nmol/mg/min] | NO synthase activity [1, 11] [nmol/mg/min] | inhibition at 30 µM [1, 11] [%] | NO synthase activity [1, 12] [nmol/mg/min] | inhibition at 100 µM [1, 12] [%] | NO synthase activity [1, 13] [nmol/mg/min] | inhibition at 7.8 µM (murine 3T3 fibroblasts; Mus musculus, Fibroblast) [%] | inhibition at 15.6 µM (murine 3T3 fibroblasts; Mus musculus, Fibroblast) [%] | inhibition at 31.2 µM (murine 3T3 fibroblasts; Mus musculus, Fibroblast) [%] | inhibition at 62.5 µM (murine 3T3 fibroblasts; Mus musculus, Fibroblast) [%] | affinity for nitric oxide synthase relative to tetrahydrobiopterin (fold higher) [2] | affinity for nitric oxide synthase relative to tetrahydrobiopterin (fold higher) [3] | also measured
C[C@H](O)[C@H](O)C1CNc2nc(N)nc(N)c2N1 (stereo partly drawn) |  |  |  |  |  |  |  |  |  |  |  |  |  |  |  |  |  | toxicity in vivo (Sprague-Dawley rats): no toxicity
Nc1nc(N)c2c(n1)NCC(CO)N2 (stereo not drawn) [(III), 2,4-diamino-5,6,7,8-tetrahydro-6-hydroxymethyl pteridine, reference compound] | 325 | 318 | 306 | 304 | 9 | 316 | 319 | 4 | 274 | 18 | 136 | 0 | 8 | 16 | 50 |  |  | inhibition at 0.01 µM [1, 6]: 3%; inhibition at 0.1 µM [1, 7]: 5%; inhibition at 1 µM [1, 8]: 8%; inhibition at 10 µM [1, 10]: 5%; inhibition at 1000 µM [1, 13]: 60%; activity in words (murine 3T3 fibroblasts; 7.5 μM): no activity
C[C@H](O)[C@H](O)C1=Nc2c(N)nc(N)nc2NC1 [(IV), 2,4-diamino-7,8-dihydro-6-(L-erythro-1,2-dihydroxylpropyl)pteridine] | 294 | 283 | 242 |  |  | 110 |  |  | 48 | 82 | 25 |  |  |  |  | about 20 -fold | about 2.5 -fold | 
C[C@H](O)[C@H](O)C1CNc2nc(N)nc(N)c2N1 (stereo partly drawn) [(I), 2,4-diamino-5,6,7,8-tetrahydro-6-(L-erythro-1,2-dihydroxylpropyl)pteridine] | 279 | 262 | 181 | 125 | 58 | 72 | 50 | 83 | 35 |  | 24 | 44 | 65 | 77 | 88 | about 20 -fold | about 2.5 -fold | IC50 ([1]; 10 μM tetrahydrobiopterin, rat neuronal NOS, read-out: IC50 (50% inhibitory concentration), inhibition of stimulation of NOSs by tetrahydrobiopterin): 1 µM; IC50 (murine inducible NOS): 7 µM; IC50 (murine NIH-3T3; Mus musculus, NIH3T3, murine interferon-γ (250 U/ml) and LPS (1 μg/ml)): 13 µM; cellular toxicity (murine NIH-3T3; murine NIH-3T3, nitrite formation test): without apparent cellular toxicity; IC50 [4]: 100 µM; inhibition of phenylalanine-4-hydroxylase [5]: 30%; cytotoxicity (3T3 murine fibroblasts): no cytotoxicity; inhibition at 7.5 µM (murine 3T3 fibroblasts; Mus musculus, Fibroblast, 7.5 μM): 44%; NO synthase inhibitor potency compared with (III) (murine 3T3 fibroblasts; compared with (III)): more potent NO synthase inhibitor; specificity for NOSs (NOSs): highly specific for NOSs
